Measurements published in ChEMBL document CHEMBL4196115 (ACS Med Chem Lett, 2018).
Substitutions are numbered along the chain they refer to. Calls of active or inactive are those of the source. No cut-off for these calls is given here.

Legend:
[1] = target: T1, Muscarinic acetylcholine receptor M1 (Macaca mulatta) (UniProt P56489); details: CHO
T1 sequence (whole entry): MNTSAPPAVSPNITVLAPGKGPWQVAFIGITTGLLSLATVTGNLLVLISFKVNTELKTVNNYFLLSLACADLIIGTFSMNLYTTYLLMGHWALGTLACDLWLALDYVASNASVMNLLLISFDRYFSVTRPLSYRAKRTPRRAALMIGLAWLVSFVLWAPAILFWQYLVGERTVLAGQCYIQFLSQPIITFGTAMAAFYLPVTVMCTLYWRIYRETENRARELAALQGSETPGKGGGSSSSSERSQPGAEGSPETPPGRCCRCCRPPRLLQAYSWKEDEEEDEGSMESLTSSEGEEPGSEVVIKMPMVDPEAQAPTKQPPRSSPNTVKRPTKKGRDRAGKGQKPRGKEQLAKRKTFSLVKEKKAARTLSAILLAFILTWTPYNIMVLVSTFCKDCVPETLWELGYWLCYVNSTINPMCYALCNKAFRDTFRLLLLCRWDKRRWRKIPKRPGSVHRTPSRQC
Description: Positive allosteric modulation of rhesus monkey muscarinic acetylcholine receptor M1 expressed in CHO cells assessed as increase in acetylcholine-induced calcium mobilization pretreated for 4 mins followed by acetylcholine addition and measured after 4 mins by Fluo-4-AM dye based FLIPR assay

[2] = target: T2, Muscarinic acetylcholine receptor M1 (Rattus norvegicus) (UniProt P08482); details: CHO
T2 sequence (whole entry): T1 sequence (whole entry) with A5V, T254S, P265A, D277E, P309S, R320K, A337G, I413V
Description: Positive allosteric modulation of rat muscarinic acetylcholine receptor M1 expressed in CHO cells assessed as increase in acetylcholine-induced calcium mobilization pretreated for 4 mins followed by acetylcholine addition and measured after 4 mins by Fluo-4-AM dye based FLIPR assay

[3] = target: T3, Muscarinic acetylcholine receptor M5 (Homo sapiens) (UniProt P08912); assay: Positive allosteric modulation of human muscarinic acetylcholine receptor M5 expressed in CHO cells; type: functional, cell-based
T3 sequence (whole entry): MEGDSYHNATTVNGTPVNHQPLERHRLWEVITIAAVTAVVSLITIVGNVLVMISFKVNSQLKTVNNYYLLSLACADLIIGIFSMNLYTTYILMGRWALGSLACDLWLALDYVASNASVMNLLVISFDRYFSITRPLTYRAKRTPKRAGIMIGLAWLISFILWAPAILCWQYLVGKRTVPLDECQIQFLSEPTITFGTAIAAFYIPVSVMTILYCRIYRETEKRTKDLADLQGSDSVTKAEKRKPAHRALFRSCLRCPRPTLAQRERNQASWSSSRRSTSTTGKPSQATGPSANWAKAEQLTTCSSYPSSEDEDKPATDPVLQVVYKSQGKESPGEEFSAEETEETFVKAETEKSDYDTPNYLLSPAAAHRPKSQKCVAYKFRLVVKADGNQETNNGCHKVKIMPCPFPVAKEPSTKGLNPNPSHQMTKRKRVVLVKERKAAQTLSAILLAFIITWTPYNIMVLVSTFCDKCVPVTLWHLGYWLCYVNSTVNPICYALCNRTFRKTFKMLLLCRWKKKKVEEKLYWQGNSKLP

Mus musculus = assay: Antialzheimer activity in mouse assessed as plasma concentration required for reversal of scopolamine-induced emotional memory deficits by measuring increase in freezing at 3 mg/kg, ip measured after 24 hrs by contextual fear conditioning assay; type: functional, organism-based
[4] = target: T4, Muscarinic acetylcholine receptor M1 (Homo sapiens) (UniProt P11229); assay: Positive allosteric modulation of human muscarinic acetylcholine receptor M1 expressed in CHO cells assessed as increase in acetylcholine-induced calcium mobilization pretreated for 4 mins followed by acetylcholine addition and measured after 4 mins by Fluo-4-AM dye based FLIPR assay; type: functional, cell-based
T4 sequence (whole entry): T1 sequence (whole entry) with P265A, D277E

[5] = target: T5, Muscarinic acetylcholine receptor M4 (Homo sapiens) (UniProt P08173); assay: Agonist activity at human muscarinic acetylcholine receptor M4 expressed in CHO cells; type: functional, cell-based
T5 sequence (whole entry): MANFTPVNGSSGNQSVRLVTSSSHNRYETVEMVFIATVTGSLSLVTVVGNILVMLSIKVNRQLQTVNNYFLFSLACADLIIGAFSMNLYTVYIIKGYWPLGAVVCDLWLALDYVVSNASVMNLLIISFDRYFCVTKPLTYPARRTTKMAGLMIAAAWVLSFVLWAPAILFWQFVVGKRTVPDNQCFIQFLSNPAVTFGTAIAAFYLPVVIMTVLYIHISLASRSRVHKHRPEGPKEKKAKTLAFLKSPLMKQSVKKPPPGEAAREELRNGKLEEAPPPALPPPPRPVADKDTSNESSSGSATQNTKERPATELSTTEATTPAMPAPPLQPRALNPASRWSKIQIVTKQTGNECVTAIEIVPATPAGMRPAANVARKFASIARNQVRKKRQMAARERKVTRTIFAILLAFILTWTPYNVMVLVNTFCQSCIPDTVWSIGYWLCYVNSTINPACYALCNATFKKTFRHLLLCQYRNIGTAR

Structure (SMILES): Cc1ccc(Cc2cc3c(=O)n([C@H]4CCCC[C@@H]4O)cnc3c3ccccc23)cn1
- IP [1]: 3.8 nM
- IP [2]: 14 nM
- Activity [3]: inactive
- Cp (Mus musculus): 2.4 µM
- IP [4]: 19 nM
- Activity [5]: inactive
